Laboratory results reported in ChEMBL document CHEMBL1201862, “PubChem BioAssay data set” (2004).
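Where inhibition never reached the appropriate level, the endpoint shown equals the highest concentration tested. Otherwise, values were interpolated linearly from a five-concentration, 48-hour dose response in 96-well plates. The concentration for 50% growth inhibition is given as GI50.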 Active and inactive are the calls of the source. Cut-off read from the data, not from the text of the source: active = GI50 up to about 1.1 µM and inactive = higher.

Columns and labels:
Assay in all cases: DTP human tumour cell line panel, 48 h
786-0 = tested on: 786-0
DU-145 = tested on: DU-145
HCT-15 = tested on: HCT-15
Hs-578T = tested on: Hs-578T
K562 = tested on: K562
LOX IMVI = tested on: LOX IMVI
M14 = tested on: M14
MDA-MB-435 = tested on: MDA-MB-435
Malme-3M = tested on: Malme-3M
NCI-H23 = tested on: NCI-H23
OVCAR-4 = tested on: OVCAR-4
SF-295 = tested on: SF-295
SK-MEL-28 = tested on: SK-MEL-28
SK-MEL-5 = tested on: SK-MEL-5
SN12C = tested on: SN12C
SR = tested on: SR
T47D = tested on: T47D
TK-10 = tested on: TK-10
UO-31 = tested on: UO-31
DLD-1 = tested on: DLD-1

| Structure (SMILES) | GI50 (786-0) | GI50 (DU-145) | GI50 (HCT-15) [µM] | GI50 (Hs-578T) | GI50 (K562) | GI50 (LOX IMVI) | GI50 (M14) | GI50 (MDA-MB-435) | GI50 (Malme-3M) | GI50 (NCI-H23) | GI50 (OVCAR-4) | GI50 (SF-295) | GI50 (SK-MEL-28) | GI50 (SK-MEL-5) | GI50 (SN12C) | GI50 (SR) | GI50 (T47D) | GI50 (TK-10) | GI50 (UO-31) | GI50 (DLD-1) |
| --- | --- | --- | --- | --- | --- | --- | --- | --- | --- | --- | --- | --- | --- | --- | --- | --- | --- | --- | --- | --- |
| Cc1ccc([N+](=O)[O-])cc1S(=O)(=O)Nc1ccc(C2=NN(C(=O)c3ccccc3)C(c3ccccc3O)C2)cc1 (stereo not drawn) | 14.4 µM (inactive) | 20.2 µM (inactive) | 13.2 | 22.8 µM (inactive) | 15.3 µM (inactive) | 18.3 µM (inactive) | 16.3 µM (inactive) | 31.2 µM (inactive) | 12.6 µM (inactive) | 17.1 µM (inactive) | 15.4 µM (inactive) | 23.4 µM (inactive) | 28.2 µM (inactive) | 15.8 µM (inactive) | 13.5 µM (inactive) | 21.2 µM (inactive) | 11.8 µM (inactive) | 13.7 µM (inactive) | 16.6 µM (inactive) | – |
| C=C1CC(C)(COc2ccc3c(C)cc(=O)oc3c2)OC1=O (stereo not drawn) | 1.48 µM (inactive) | 2.36 µM (inactive) | 1.47 | 3.56 µM (inactive) | 0.313 µM (active) | 1.59 µM (inactive) | 1.34 µM (inactive) | 1.28 µM (inactive) | 1.29 µM (inactive) | 1.57 µM (inactive) | 2.62 µM (inactive) | 4.34 µM (inactive) | 2.72 µM (inactive) | 1.31 µM (inactive) | 3.86 µM (inactive) | 0.918 µM (active) | 1.74 µM (inactive) | 1.26 µM (inactive) | 6.7 µM (inactive) | – |
| CC(C)O/C=C1\C(=O)C2(SCCS2)[C@H]2CCCC[C@@H]12 | 48 µM (inactive) | – | 33.9 | – | 39.8 µM (inactive) | – | 42.6 µM (inactive) | – | 32.7 µM (inactive) | – | 48.9 µM (inactive) | – | > 100 µM (inactive) | 25.2 µM (inactive) | 68.7 µM (inactive) | 48.9 µM (inactive) | – | 43 µM (inactive) | 41.3 µM (inactive) | 45.9 µM (inactive) |
| CCOc1cc(/C=N\O)cc(/C=N/O)c1O | 49.4 µM (inactive) | 68.5 µM (inactive) | 31.3 | 31.3 µM (inactive) | 61.5 µM (inactive) | 22.2 µM (inactive) | 44 µM (inactive) | 32.3 µM (inactive) | 37.2 µM (inactive) | 30 µM (inactive) | 42.6 µM (inactive) | 38.3 µM (inactive) | 22.8 µM (inactive) | 17.7 µM (inactive) | 51.6 µM (inactive) | 29.3 µM (inactive) | 21.9 µM (inactive) | > 100 µM (inactive) | 1.2 µM (inactive) | – |
| CCOC(=O)COc1cccc2occc(=O)c12 | > 100 µM (inactive) | – | > 100 | – | > 100 µM (inactive) | > 100 µM (inactive) | > 100 µM (inactive) | – | > 100 µM (inactive) | > 100 µM (inactive) | > 100 µM (inactive) | > 100 µM (inactive) | > 100 µM (inactive) | > 100 µM (inactive) | > 100 µM (inactive) | – | – | > 100 µM (inactive) | > 100 µM (inactive) | > 100 µM (inactive) |
| CC1CCC/C1=C(/I)C(=O)c1ccccc1 (stereo not drawn) | > 100 µM (inactive) | > 100 µM (inactive) | > 100 | > 100 µM (inactive) | 34.4 µM (inactive) | 9.16 µM (inactive) | 59.3 µM (inactive) | 28.9 µM (inactive) | 64.4 µM (inactive) | 74.5 µM (inactive) | 85.7 µM (inactive) | 27 µM (inactive) | > 100 µM (inactive) | 26.2 µM (inactive) | > 100 µM (inactive) | 30.8 µM (inactive) | > 100 µM (inactive) | > 100 µM (inactive) | > 100 µM (inactive) | – |
| c1ccc(SC(Sc2ccccc2)=C2CCC2)cc1 | > 100 µM (inactive) | – | > 100 | – | > 100 µM (inactive) | > 100 µM (inactive) | > 100 µM (inactive) | – | – | > 100 µM (inactive) | > 100 µM (inactive) | > 100 µM (inactive) | > 100 µM (inactive) | > 100 µM (inactive) | > 100 µM (inactive) | > 100 µM (inactive) | – | > 100 µM (inactive) | > 100 µM (inactive) | > 100 µM (inactive) |
| CC1(C)OP(=O)(O)CC1=O | > 100 µM (inactive) | > 100 µM (inactive) | > 100 | > 100 µM (inactive) | > 100 µM (inactive) | > 100 µM (inactive) | > 100 µM (inactive) | > 100 µM (inactive) | > 100 µM (inactive) | > 100 µM (inactive) | > 100 µM (inactive) | > 100 µM (inactive) | > 100 µM (inactive) | > 100 µM (inactive) | > 100 µM (inactive) | > 100 µM (inactive) | > 100 µM (inactive) | > 100 µM (inactive) | > 100 µM (inactive) | – |
